Reference: US10035800B2 (AbbVie Inc., priority 2013, dated 2018)
“And” between values parts separate entries of the source, which are not always exact repeats. Equal entries are not always repeated. Where two headings read alike, the source gives them in different places. Marks after values point to notes of the source that are not given here.

What was measured:
[1] = test system: OPM-2 xenograft tumors; settings: SCID-beige mice
Method: Xenograft Tumor Growth Inhibition Assay
A suspension of cancer cells (5×10^6 per 0.1 mL) prepared in RPMI culture medium (Invitrogen, Carlsbad, Calif.) was diluted 1:1 with a solution of Matrigel™ (BD Biosciences, Franklin Lakes, N.J.) and inoculated subcutaneously into the right hind flank of female SCID-beige (Charles River Labs) mice. Randomization into treatment and vehicle control groups (8-10/group) occurred when the mean tumor volume reached approximately 250 mm^3. Compounds were formulated in 2.5% DMSO, 10% ethanol, 27.5% PEG 400, 60% Phosol 53 MCT. Administration of compound or vehicle was initiated on the day following randomization and continued for 21 days. Tumors were measured twice a week throughout the treatment period using a pair of calipers and tumor volumes were calculated according to the formula V=L×W^2/2 (V: volume, mm^3; L: length, mm. W: width, mm).

[2] = test system: breast cancer cell line MX-1; assay: MX-1 cell line proliferation assay; type: cell-based; settings: MX-1 cells, 3-day proliferation assay, Cell Titer Glo; read-out: Cellular proliferation: EC50
In short: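 MX-1 cells at 5000/well, in RPMI 1640 with 10% FBS, were exposed to compounds for 3 days. Final concentrations ranged 3 μM–0.1 nM or 1 μM–0.03 nM, in 3-fold steps. Cell Titer Glo luminescence was normalized to DMSO and fitted sigmoidally for EC50; overall MSR 2.1.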

[3] = molecular target: T1, BRD4 (BDI_K57-E168) (Homo sapiens, UniProt O60885); assay: TR-FRET bromodomain binding assay, first bromodomain of BRD4; settings: 100 nM probe
T1 construct: BD1: amino acids K57-E168; made in house
In short: (§1)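 Probe displacement by TR-FRET: 8 nM His-BRD4 bromodomain, 1 nM Eu-anti-His, Alexa647 BET-inhibitor probe at 100 nM (BDI) or 30 nM (BDII); 20 mM Na phosphate pH 6.0, 2% DMSO; 1 h RT. Ex 340, Em 495/520. IC50 from 4PL fit; Ki from IC50, probe Kd and probe concentration.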

[4] = molecular target: T2, BRD4 (BDII_E352-M457) (Homo sapiens, UniProt O60885); assay: TR-FRET bromodomain binding assay, second bromodomain of BRD4; settings: 30 nM probe
T2 construct: protocol; made in house
In short: as §1

[5] = test system: IL-6 (Interleukin-6) production; assay: LPS (lipopolysaccharide) induced IL-6 production mouse assay; type: in vivo, mice; settings: oral administration 1 h before LPS 2.5 mg/kg ip, serum 2 h after LPS, p < 0.05 vs vehicle
Method: LPS (Lipopolysaccharide) Induced IL-6 Production Mouse Assay
Compounds of the Examples listed in Table 2 were assayed for their ability to inhibit LPS (lipopolysaccharide) induced IL-6 (Interleukin-6) production in mice. Fox Chase SCID® female mice (Charles Rivers Labs, 5 per group) or CD1 female mice (5 per group) received an intraperitoneal challenge of lipopolysaccharide (2.5 mg/kg, L2630 E. coli 0111:B4) one hour after oral administration of compounds. Mice were euthanized 2 hours after lipopolysaccharide injection, blood was removed by cardiac puncture, and then the serum harvested from the blood samples was frozen at −80° C. On the day of the assay the serum samples were brought to room temperature and then diluted 1:20 in phosphate-buffered saline containing 2% bovine serum albumin. Interleukin-6 measurements were performed using a cytokine assay from Meso Scale Discovery (Gaithersburg, Md.) for mouse serum analysis according to the manufacturer's protocol and read on a SECTOR Imager 6000 (Meso Scale Discovery, Gaithersburg, Md.) instrument. Statistical analysis was performed using Prism software (version 5.0) incorporating Dunnett's one way ANOVA. The IL-6 mean and standard deviation of the group of vehicle treated animals were compared with the IL-6 mean and standard deviation of the group treated with drug. A p value <0.05 means that there is less than a 5% probability that the mean values in the two groups are equal.

[6] = TR-FRET assay protocol G (compound 0.92 μM-15 pM)
[7] = TR-FRET assay protocol B (compound 49.02 μM-15.63 nM)
[8] = TR-FRET assay protocol E (compound 9.19 μM-150 pM)

Structure (SMILES)	EC50 [2]	Ki [3, 6]	Ki [4, 6]	% inhibition of LPS induced IL-6 production ([5]; mouse strain CD1)	% inhibition of LPS induced IL-6 production ([5]; mouse strain SCID)	further results
Cn1cc2c3c(c[nH]c3c1=O)CN(c1ncc(F)cc1F)c1ccc(CS(C)(=O)=O)cc1-2 [Example 213, 4-(3,5-difluoropyridin-2-yl)-10-methyl-7-((methylsulfonyl)methyl)-3,4-dihydro-1H-1,4,10-triazadibenzo[cd,f]azulen-11(10H)-one]	1.4 nM	0.65 nM	0.42 nM	–	–	% TGI ([1]; 0.5 mg/kg PO, QD x21): 82*** %; % TGI ([1]; 1 mg/kg PO, QD x21): 96*** % and 95*** %
Cn1cc2c3c(c[nH]c3c1=O)CN(c1ccccn1)c1ccc(CS(C)(=O)=O)cc1-2 [Example 207, 10-methyl-7-((methylsulfonyl)methyl)-4-(pyridin-2-yl)-3,4-dihydro-1H-1,4,10-triazadibenzo[cd,f]azulen-11(10H)-one]	1.33 nM	0.92 nM	2.09 nM	65%	–	% TGI ([1]; 0.25 mg/kg PO, QD x21): 60*** %; % TGI ([1]; 0.5 mg/kg PO, QD x21): 93*** % and 94*** %; % TGI ([1]; 1 mg/kg PO, QD x21): 97*** %
Cn1cc2c3c(c[nH]c3c1=O)CN(c1ccc(F)cc1)c1ccc(CS(C)(=O)=O)cc1-2 [Example 9, 4-(4-fluorophenyl)-10-methyl-7-((methylsulfonyl)methyl)-3,4-dihydro-1H-1,4,10-triazadibenzo[cd,f]azulen-11(10H)-one]	0.721 nM	0.453 nM	1.11 nM	–	79%	% TGI ([1]; 1.85 mg/kg PO, QD x21): 87*** %
CCOC(=O)N1Cc2c[nH]c3c(=O)n(C)cc(c23)-c2cc(F)cc(F)c21 [Example 173, ethyl 5,7-difluoro-10-methyl-11-oxo-10,11-dihydro-1H-1,4,10-triazadibenzo[cd,f]azulene-4(3H)-carboxylate]	19.9 nM	6.72 nM	3.14 nM	87%	–	% TGI ([1]; 1.25 mg/kg PO, QD x21): 49** %
Cn1cc2c3c(c[nH]c3c1=O)CN(C1CCC(NC(=O)OC(C)(C)C)CC1)c1ccc(CS(C)(=O)=O)cc1-2 (mixture of isomers) [Example 196]	3.82 nM	1.14 nM	1.72 nM	79%	–	% TGI ([1]; 2.5 mg/kg PO, QD x21): 84*** %; % TGI ([1]; 5 mg/kg PO, QD x21): 92*** %
Cn1cc2c3c(c[nH]c3c1=O)CN(CCC1CCOCC1)c1ccc(CS(C)(=O)=O)cc1-2 [Example 191, 10-methyl-7-((methylsulfonyl)methyl)-4-(2-(tetrahydro-2H-pyran-4-yl)ethyl)-3,4-dihydro-1H-1,4,10-triazadibenzo[cd,f]azulen-11(10H)-one]	10.7 nM	1 nM	3.38 nM	60%	–	–
CCOC(=O)C1c2c[nH]c3c(=O)n(C)cc(c23)-c2cc(CS(C)(=O)=O)ccc2N1CC1CC1 (centres unmarked) [Example 7, ethyl 4-(cyclopropylmethyl)-10-methyl-7-((methylsulfonyl)methyl)-11-oxo-3,4,10,11-tetrahydro-1H-1,4,10-triazadibenzo[cd,f]azulene-3-carboxylate]	14.5 nM	–	–	–	53%	Ki [3, 7]: 51.1 nM; Ki [4, 7]: 26.7 nM
Cn1cc2c3c(c[nH]c3c1=O)CN(C1CCOCC1)c1ccc(CS(C)(=O)=O)cc1-2 [Example 151, 10-methyl-7-((methylsulfonyl)methyl)-4-(tetrahydro-2H-pyran-4-yl)-3,4-dihydro-1H-1,4,10-triazadibenzo[cd,f]azulen-11(10H)-one]	4.26 nM	1.14 nM	2.3 nM	57%	–	–
Cn1cc2c3c(c(C#N)[nH]c3c1=O)CN(c1ccc(Cl)cc1)c1ccc(CS(C)(=O)=O)cc1-2 [Example 199, 4-(4-chlorophenyl)-10-methyl-7-((methylsulfonyl)methyl)-11-oxo-3,4,10,11-tetrahydro-1H-1,4,10-triazadibenzo[cd,f]azulene-2-carbonitrile]	10.8 nM	0.81 nM	1.21 nM	90%	–	% TGI ([1]; 1.25 mg/kg PO, QD x21): 91*** %
CCCCN1Cc2c[nH]c3c(=O)n(C)cc(c23)-c2cc(CS(C)(=O)=O)ccc21 [Example 24, 4-butyl-10-methyl-7-((methylsulfonyl)methyl)-3,4-dihydro-1H-1,4,10-triazadibenzo[cd,f]azulen-11(10H)-one]	1.07 nM	–	–	–	78%	Ki [3, 8]: 0.963 nM; Ki [4, 8]: 0.801 nM
COCCC1c2c[nH]c3c(=O)n(C)cc(c23)-c2cc(CS(C)(=O)=O)ccc2N1CC1CC1 (racemic) [Example 15, 4-(cyclopropylmethyl)-3-(2-methoxyethyl)-10-methyl-7-((methylsulfonyl)methyl)-3,4-dihydro-1H-1,4,10-triazadibenzo[cd,f]azulen-11(10H)-one]	8.75 nM	–	–	–	68%	Ki [3, 8]: 5.22 nM; Ki [4, 8]: 0.631 nM
Cn1cc2c3c(c[nH]c3c1=O)CN(CC1CCOC1)c1ccc(CS(C)(=O)=O)cc1-2 (centres unmarked) [Example 26]	1.03 nM	0.701 nM	0.719 nM	–	88%	–
Cn1cc2c3c(c[nH]c3c1=O)CN(c1ccc(C#N)cc1)c1ccc(CS(C)(=O)=O)cc1-2 [Example 192, 4-(10-methyl-7-((methylsulfonyl)methyl)-11-oxo-10,11-dihydro-1H-1,4,10-triazadibenzo[cd,f]azulen-4(3H)-yl)benzonitrile]	1.25 nM	1.65 nM	1.08 nM	73%	–	–
Cn1cc2c3c(c[nH]c3c1=O)CN(c1ccc(F)cc1F)c1ccc(CS(C)(=O)=O)cc1-2 [Example 12, 4-(2,4-difluorophenyl)-10-methyl-7-((methylsulfonyl)methyl)-3,4-dihydro-1H-1,4,10-triazadibenzo[cd,f]azulen-11(10H)-one]	4 nM	1.34 nM	0.472 nM	–	90%	% TGI ([1]; 1.5 mg/kg IP, QD x21): 82** % and 91*** %; % TGI ([1]; 1.5 mg/kg PO, QD x21): 87*** %; % TGI ([1]; 3 mg/kg IP, QD x21): 89** %; % TGI ([1]; 3 mg/kg PO, 3 on 4 off x3 weeks): 81*** %; % TGI ([1]; 3 mg/kg PO, QD x11): 72*** %; % TGI ([1]; 3 mg/kg PO, QD x21): 94*** %
